Measured values published in patent US20080089859A1, “ADMINISTRATION OF SLEEP RESTORATIVE AGENTS” (priority 2001, published 2008).
Marks after values point to notes of the source that are not given here.

Tests used:
[1] = tested on: patients with Behcet's Syndrome; test: Treatment of patients with Behcet's Syndrome; format: in vivo, human
Protocol: Three patients with Behcet's Syndrome were treated according to the present invention. For one patient, prednisone administration was supplemented with lorazepam at 2 mg qhs. […] For a second patient, lorazepam at 2 mg qhs was co-admnistered with Dapsone and prednisone.

[2] = tested on: patients with Multiple Sclerosis (MS); settings: for Tolerability: human, in vivo
Protocol: Eight patients with Multiple Sclerosis (MS) were treated according to the present invention.

[3] = tested on: patient with chronic gout; test: Treatment of a patient with chronic gout and severe synovitis; format: in vivo, human; settings: one patient
Protocol: Adding colchicine, hydroxychloroquine and Etanercept only allowed them to decrease prednisone to 15 mg qd.

[4] = tested on: rheumatoid arthritis (Ra) and Psoriatic arthritis (PsA) patients; test: Study of Example 1 continued to 18 months (Example 2); format: in vivo, human
Text: The study of Example 1 was continued to 18 months. […] Fibromyalgia was a surrogate for a lack of deep (e.g., stage IV) restorative sleep.
JC refers to the number of swollen tender joints.

[5] = tested on: patients with Palindromic Rheumatism; test: Treatment of patients with Palindromic Rheumatism; format: in vivo, human; settings: five patients; clonazepam 2 mg, pramipexole 1-6 mg and/or lorazepam 2 mg qhs
Protocol: Five patient with Palindromic Rheumatism were treated according to the present invention. After adding clonazepam 2 mg, pramipexole 1-6 mg and/or lorazepam 2 mg qhs to their treatment, the patients reported that episodic severe pain decreased dramatically, by 90%.

[6] = tested on: patients with Systemic Lupus Erythematosis; test: Treatment of patients with Systemic Lupus Erythematosis; format: in vivo, human
Protocol: Patients with Systemic Lupus Erythematosis were treated according to the present invention.
The dose range of pramipexole ranged from 2-6 mg qhs.

[7] = tested on: patient with Reiter's Syndrome; settings: one patient on Etanercept; pramipexole up to 4 mg qhs
[8] = tested on: patients having rheumatoid arthritis; test: Rheumatoid arthritis patients on Leflunamide given sleep restorative agents; format: in vivo, human; settings: lorazepam, clonazepam and/or pramipexole
[9] = tested on: patients with Sjogren's Syndrome; test: Treatment of patients with dry eyes and mouth from Sjogren's Syndrome; format: in vivo, human; settings: Lorazepam 1-2 mg po qhs, Pramipexole later 0.5-4.0 mg qhs
Protocol: Three patients with dry eyes and mouth from Sjogren's Syndrome, were treated with lorazepam or pramipexole. […] Lorazepam was administered at 1-2 mg po qhs. Pramipexole was later administered at 0.5-4.0 mg qhs.

[10] = tested on: patients having rheumatoid arthritis; test: Rheumatoid arthritis patients on Infliximab given sleep restorative agents; format: in vivo, human; settings: lorazepam 1-2 mg qhs or pramipexole
[11] = tested on: patient with ocular and articular Sarcoidosis; settings: one patient steroid-dependent for two years; Pramipexole to 3 mg qhs
Text: A patient with ocular and articular Sarcoidosis was steroid-dependent for two years.

[12] = tested on: patients with Ankylosing Spondylitis; test: Treatment of patients with Ankylosing Spondylitis; format: in vivo, human
Protocol: Six patients with Ankylosing Spondylitis were treated according to the present invention. […] The patients were administered lorazepam 1-2 mg qhs or pramipexole 0.5-3.0 mg qhs.

[13] = tested on: patients with rheumatoid arthritis; settings: cited from earlier work
[14] = tested on: rheumatoid arthritis (Ra) and Psoriatic arthritis (PsA) patients; test: Open-label retrospective chart analysis of patients starting Etanercept, with sleep/fibromyalgia treatment (Example 1); format: in vivo, human
Text: The effect of sleep disturbance and/or overt fibromyalgia (FM) on Etanercept (ENBREL®, Immunex) efficacy was monitored in an open-label, retrospective chart analysis of rheumatoid arthritis (Ra) and Psoriatic arthritis (PsA) patients starting Etanercept due to inadequate response to prior disease-modifying and steroid treatment. Sixty six (66) consecutive patients (19 males, 47 Females; 39 positive for rheumatoid factor for rheumatoid arthritis, 13 negative for rheumatoid factor for rheumatoid arthritis, 14 having PsA) were treated at a suburban, referral-based rheumatology clinic. The patients were monitored for swollen/tender joints (joint count, JC), fibromyalgia tender point score, restorative sleep quality, and concomitant medication use, before and after adding Etanercept treatment. Concomitant medication use included prednisone, methotrexate, non-steroidal anti-inflammatory drugs (NSAIDS), azothioprine, sulfasalazine, and hydroxychloroquine.
All patients with overt FM and non-restorative sleep were treated with options for fibromyalgia (FM), including Trazodone, Lorazepam, Clonazepam, Carisoprodol, and/or Pramipexole as needed to decrease FM pain and sleep disturbance as previously reported. (Arthritis & Rheumatology 43:9 A1599 (2000); Arthritis & Rheumatology 42:9 A385 (1999); Arthritis & Rheumatology 41:9 A1359 (1998).)
The patient criteria were as follows: The mean arthritis duration was 9.2±1.3 years. Etanercept use was 14±1.5 months. The average age of the patients was 50.5±4.3 years. Their average initial erythrocyte sedimentation rate (ESR) was 22.0±8.0. Previous DMARDs 2.4±0.3. Their initial Joint Count was as follows: PsA 8.3, Ra-8.1, and Ra+13.2 The disease groups were combined: 20 patients had active FM (aFM). 29 never had FM (no FR).

[15] = tested on: patients having rheumatoid arthritis; test: Rheumatoid arthritis patients on prednisone given Ropinirole; format: in vivo, human; settings: Ropinirole 2-20 mg qhs

CCCNC1CCc2nc(N)sc2C1 (stereo not drawn) [Pramipexole, 2-amino-4,5,6,7-tetrahydro-6-(propylamino)benzo-thiazole]
Symptoms observed in the patient ([1]; second patient (pramipexole added to lorazepam), third patient (clonazepam 2 mg qhs)): No fatigue, mouth ulcers, skin vasculitis, hoarse voice or seizures were observed | Discontinuation of prednisone ([1]; single patients, lorazepam 2 mg qhs (patient 1), pramipexole added to lorazepam (patient 2), clonazepam 2 mg qhs (patient 3)): prednisone 5 mg qd could be discontinued | Tolerability [2]: intolerant | MS activity ([2]; three patients, pramipexole and/or lorazepam added): MS was quiet for over three years | Discontinuation of other medications ([3]; pramipexole and lorazepam added together): allowed the patient to discontinue steroids, colchicine, hydroxychoroquine, and narcotics | Response of improved patients after adding the agent to their treatment ([4]; 12 month to 18 month time point, on Etanercept): did much better from the 12 month time point to the 18 month time point | Expected prednisone discontinuation after conversion back to inactive FM ([4]; one patient who developed FM and needs prednisone 10 mg qd, planned treatment): expected to allow them to discontinue prednisone | Decrease of episodic severe pain [5]: 90% | Other medications stopped [5]: off narcotics, steroids, Etanercept, Infliximab, leflunamide, Azothioprine, sulfasalazine, hydroxychloroquine and colchicine | Decrease or d/c of prednisone ([6]; 8 patients, pramipexole 2-6 mg qhs): 80% | Prednisone dose reached ([6]; person with life threatening leukopenia, steroids 60 mg qd before, Pramipexole increased to 3.5 mg q hs over 3 months): 5 mg qd | Symptoms noted ([6]; same patient after pramipexole 3-4.5 mg qhs): much less fatigue, anemia, joint pain, and had stable kidney function | Prednisone dose reached ([6]; same patient, pramipexole 3-4.5 mg qhs added, first time in 7 years): 5 mg qd | Complete blood count ([6]; same person, after Pramipexole): maintaining normal complete blood count | Discontinuation of other medications [7]: able to discontinue methotrexate, steroids 5-10 mg qd, and narcotics | Response of dactylitis and synovitis [7]: dactylitis and synovitis responded better to Etanercept | Leflunamide efficacy [8]: increased Leflunamide efficacy | Resolution of dryness (eyes and mouth) ([9]; 3 patients on Hydroxychloroquine 200 mg po bid, nearly complete resolution in third patient): Complete resolution of the dryness in 2 of 3 patients | Hydroxychloroquine sparing ([9]; 3 patients): One daily dose of Hydroxychloroquine was discontinued and benefit maintained | Infliximab efficacy [10]: increased efficacy of Infliximab | Decrease of steroids with disease still controlled [11]: 90% | Discontinuation of Methotrexate and steroids ([12]; six patients on Methotrexate, steroids 2-10 mg qd and Etanercept, lorazepam 1-2 mg qhs or pramipexole 0.5-3.0 mg qhs): All six patients were able to discontinue Methotrexate and steroids

Etanercept
Prednisone dose reached ([3]; colchicine, hydroxychloroquine and Etanercept added together, before sleep agents): 15 mg qd | MTX abs (absolute change of methotrexate use) ([4]; 18 months, Active FM (N 6)): (6) +0.8 mg | Pred abs (absolute change of steroid use) ([4]; 18 months, Active FM (N 9)): (9) −7.15 mg | Joint count abs (absolute change) ([4]; 18 months, Active FM (N 10)): (10) −10.95 | MTX abs (absolute change of methotrexate use) ([4]; 18 months, Inactive FM (N 9)): (9) −20.1 mg | Pred abs (absolute change of steroid use) ([4]; 18 months, Inactive FM (N 13)): (13) −7.92 mg | Joint count abs (absolute change) ([4]; 18 months, Inactive FM (N 23)): (23) −8.98 | MTX abs (absolute change of methotrexate use) ([4]; 18 months, No FM (N 16), p 0.0002 across groups): (16) −17.5 mg | Pred abs (absolute change of steroid use) ([4]; 18 months, No FM (N 19), p 0.8649 across groups): (19) −7.32 mg | Joint count abs (absolute change) ([4]; 18 months, No FM (N 28), p 0.5685 across groups): (28) −11.54 | JC2, number of swollen tender joints, mean ([4]; patients converted from active FM to inactive FM, 12 months, study entry 9.1): 4.6 # tender joints | Pred2, Pred used, mean ([4]; patients converted from active FM to inactive FM, 12 months, study entry 10.5): 5.5 mg | MTX2, methotrexate used, mean ([4]; patients converted from active FM to inactive FM, 12 months, study entry 17.5): 0 mg | JC3, number of swollen tender joints, mean ([4]; patients converted from active FM to inactive FM, 18 months, study entry 9.1): 0 # tender joints | Pred3, Pred used, mean ([4]; patients converted from active FM to inactive FM, 18 months, study entry 10.5): 1.8 mg | MTX3, methotrexate used, mean ([4]; patients converted from active FM to inactive FM, 18 months, study entry 17.5): 0 mg | Patients who may not respond [13]: 15-20% | % Change Joint Count ([14]; No FM patients): −93.9 ± 1.9% | % Change Methotrexate Dose ([14]; No FM patients): −89.5 ± 8.4% | % Change Prednisone Dose ([14]; No FM patients): −96.3 ± 4.0% | Δ Pred., prednisone dose after adding Etanercept ([14]; No FM patients (29), before 8.0): 8.0 → 0.3 mg/d | Δ MTX, methotrexate dose after adding Etanercept ([14]; No FM patients (29), before 19.1): 19.1 → 2.0 mg/wk | Δ Joint Count, value after adding Etanercept ([14]; No FM patients (29), before Etanercept 11.6): 11.6 → 0.7 | Medication Discontinued: Azathioprine/Sulfasalazine/Hydroxychloroquine (patients) ([14]; No FM patients, p 0.019 across groups): 10/11 | Medication Discontinued: NSAIDs (patients) ([14]; No FM patients, p 0.045 across groups): 6/7 | Δ Joint Count, value after adding Etanercept ([14]; aFM (active fibromyalgia) patients (20), before Etanercept 11.5, M-W P 0.066): 11.5 → 5.9 * | Medication Discontinued: Azathioprine/Sulfasalazine/Hydroxychloroquine (patients) ([14]; aFM patients): 4/8 | Medication Discontinued: NSAIDs (patients) ([14]; aFM patients): 1/13 | Δ Pred., prednisone dose after adding Etanercept ([14]; aFM patients (20), before 10.3, M-W P 0.1): 10.3 → 5.9 # mg/d | Δ MTX, methotrexate dose after adding Etanercept ([14]; aFM patients (20), before 15.0, M-W P 0.002): 15.0 → 13.3 ** mg/wk | % Change Joint Count ([14]; aFM patients, M-W P 0.001): −47.8 ± 14.% | % Change Prednisone Dose ([14]; aFM patients, M-W P 0.001): −48.5 ± 15.% | % Change Methotrexate Dose ([14]; aFM patients, M-W P < 0.001): −11.3 ± 4.5% | Δ Joint Count, value after adding Etanercept ([14]; iFM (inactive fibromyalgia) patients (17), before Etanercept 10.1): 10.1 → 0.5 | % Change Joint Count ([14]; iFM patients): −95.0 ± 1.9% | % Change Methotrexate Dose ([14]; iFM patients): −100. ± 0.0% | % Change Prednisone Dose ([14]; iFM patients): −94.5 ± 3.6% | Medication Discontinued: Azathioprine/Sulfasalazine/Hydroxychloroquine (patients) ([14]; iFM patients): 9/9 | Medication Discontinued: NSAIDs (patients) ([14]; iFM patients): 4/7 | Δ Pred., prednisone dose after adding Etanercept ([14]; iFM patients (17), before 7.3): 7.3 → 0.4 mg/d | Δ MTX, methotrexate dose after adding Etanercept ([14]; iFM patients (17), before 19.7): 19.7 → 0.0 mg/wk | Disease activity under continued Etanercept ([12]; six patients after lorazepam or pramipexole, off Methotrexate and steroids): without evidence of active disease

CCCN(CCC)CCc1cccc2c1CC(=O)N2.Cl [Ropinirole, 4-[2-(dipropylamino)-ethyl]-1,3-dihydro-2H-indol-2-one mono hydrochloride]
Tolerability [2]: intolerant | Prednisone dose [15]: able to lower their prednisone doses
